Test results published in patent US9750761B2, “LDH inhibitors as treatment for fibrosis and fibrotic-related disorders” (University of Rochester, priority 2014, dated 2017).

Experiments:
[1] = system: primary human lung fibroblasts; experiment: Radiation-induced myofibroblast differentiation (α-SMA, LDHA Western blot); assay type: cell-based; details: SB431542 2.5 μM from 1 hour before 7 Gy, 5 days post radiation
Experimental: Cell Culture and Irradiations: Fibroblasts were cultured in Eagle's minimum essential media (Life Technologies, Gaithersburg, Md.) supplemented with 10% FBS (Sigma Aldrich, St. Louis, Mo.), 2 mM L-Glutamine, antibiotic and antimycotic (Gibco, Carlsbad, Calif.) at 37° C. with 7% CO2. Cells were irradiated with a ^137Cs γ-ray source at approximately 2.70 cGy/min dose rate at indicated doses. Human recombinant TGF-β1 (R&D systems, Minneapolis, Minn.) was used at 1 ng/ml. […] TGF-β1 receptor 1 was inhibited using SB431542 (Sigma Aldrich) at 2.5 μM starting 1 hour prior to irradiations.
Western Blotting: Cell lysates were run on SDS-PAGE under reducing conditions and probed for expression of α-SMA (Sigma Aldrich), LDHA (Abcam, Cambridge, Mass.). Glyceraldehyde 3-phosphate dehydrogenase (Abcam) was used as a loading control.

[2] = system: primary human lung fibroblasts; experiment: Alamar blue assay; assay type: cell-based; details: 72 hours
Experimental: Alamar blue assay: Fibroblasts were cultured with and without TGF-β and/or gossypol for 72 hours and subsequently incubated with Alamar blue (Invitrogen, Grand Island, N.Y.). Alamar blue incorporation was determined by spectrophotometric analysis per the manufacturer's protocol.
Based on the foregoing results, it was believed that gossypol inhibits endogenous LDH activity, thus reducing lactate production and subsequent lactate-dependent activation of latent TGF-β in the medium. To investigate the mechanism of action of gossypol, fibroblasts were first treated with TGF-β for 72 hours. Next, protein lysates were harvested and incubated with increasing concentrations of gossypol for one hour. The LDH activity of each lysate was then determined with a standardized LDH kinetic activity assay. […] Next, it was investigated whether gossypol could prevent the extracellular accumulation of lactate by treated fibroblasts. […] To confirm that gossypol inhibits extracellular accumulation of lactate, the rate of extracellular acidification was measured using the commercially available Seahorse Bioassay. […] To determine whether the effects of gossypol were dependent on toxic effects on the cells, the Alamar blue assay was utilized.

Structure (SMILES) | radiation-induced α-SMA expression [1] | Alamar blue reduction ([2]; 1 mM gossypol) | Alamar blue reduction ([2]; 5 mM gossypol) | decrease in Alamar blue reduction ([2]; 10 mM gossypol) [%]
NC(=O)c1ccc(-c2nc(-c3ccc4c(c3)OCO4)c(-c3ccccn3)[nH]2)cc1 [SB431542] | significantly attenuated radiation-induced α-SMA expression |  |  | 
Cc1cc2c(C(C)C)c(O)c(O)c(C=O)c2c(O)c1-c1c(C)cc2c(C(C)C)c(O)c(O)c(C=O)c2c1O [gossypol] |  | no significant effect on Alamar blue reduction | no significant effect on Alamar blue reduction | 50
